{"source": "patent US9302999B2", "about": "“Substituted triazoles as herbicides” (E. I. DU PONT DE NEMOURS AND COMPANY, priority 2012, dated 2016)", "type_in_all_cases": "in vivo", "key": {"[1]": {"tested_on": "crabgrass, large (large crabgrass, Digitaria sanguinalis)", "experiment": "Test A pre-/postemergence: crabgrass, large", "details": "for Crabgrass, Large plant response rating: Postemergence; for Plant response rating, Crabgrass, Large: Preemergence", "how_it_was_run": "(§1)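 Plants in loam–sand blend were treated with test chemicals in non-phytotoxic solvent with surfactant, either as preemergence directed soil spray or postemergence at 2–10 cm, one- to two-leaf stage. After about ten days in greenhouse, injury was rated visually against untreated controls on a 0–100 scale (100 = complete control).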"}, "[2]": {"tested_on": "foxtail, giant (giant foxtail, Setaria faberii)", "experiment": "Test A pre-/postemergence: foxtail, giant", "details": "for Foxtail, Giant plant response rating: Postemergence; for Plant response rating, Foxtail, Giant: Preemergence", "how_it_was_run": "as §1"}, "[3]": {"tested_on": "pigweed (Amaranthus retroflexus)", "experiment": "Test A pre-/postemergence: pigweed", "how_it_was_run": "as §1"}, "[4]": {"tested_on": "wheat (Triticum aestivum)", "experiment": "Test A pre-/postemergence: wheat", "how_it_was_run": "as §1"}, "[5]": {"tested_on": "wild oat (Avena fatua)", "experiment": "Test C pre-/postemergence: wild oat", "details": "Preemergence", "how_it_was_run": "(§2)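 Preemergence on seeds in loam/sand, postemergence on 2–18 cm (1–4-leaf) plants in peat-based medium; compounds in non-phytotoxic solvent with surfactant. After 13–15 days in greenhouse, visual rating versus controls, 0 (no effect) to 100 (complete control).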"}, "[6]": {"tested_on": "foxtail, giant (giant foxtail, Setaria faberii)", "experiment": "Test C pre-/postemergence: foxtail, giant", "details": "Preemergence", "how_it_was_run": "as §2"}, "[7]": {"tested_on": "nightshade (eastern black nightshade, Solanum ptycanthum)", "experiment": "Test C pre-/postemergence: nightshade", "details": "Preemergence", "how_it_was_run": "as §2"}, "[8]": {"tested_on": "nutsedge, yellow (yellow nutsedge, Cyperus esculentus)", "experiment": "Test C pre-/postemergence: nutsedge, yellow", "details": "Preemergence", "how_it_was_run": "as §2"}, "[9]": {"tested_on": "pigweed (Amaranthus retroflexus)", "experiment": "Test C pre-/postemergence: pigweed", "details": "Preemergence", "how_it_was_run": "as §2"}, "[10]": {"tested_on": "soybean (Glycine max)", "experiment": "Test C pre-/postemergence: soybean", "details": "Preemergence", "how_it_was_run": "as §2"}, "[11]": {"details": "125 g ai/ha, 0 to 100 scale, 0 is no effect, 100 is complete control"}, "[12]": {"details": "500 g ai/ha, visual rating on 0 to 100 scale (0 no effect, 100 complete control), approximately ten days"}, "[13]": {"details": "125 g ai/ha, 0 to 100 scale where 0 is no effect and 100 is complete control"}, "[14]": {"details": "500 g ai/ha, 0 to 100 scale (0 no effect, 100 complete control)"}, "[15]": {"details": "Postemergence, 125 g ai/ha, 0 to 100 scale, 0 is no effect, 100 is complete control"}, "[16]": {"details": "Postemergence, 500 g ai/ha, visual rating on 0 to 100 scale (0 no effect, 100 complete control), approximately ten days"}, "[17]": {"details": "Preemergence, 125 g ai/ha, 0 to 100 scale where 0 is no effect and 100 is complete control"}, "[18]": {"details": "Preemergence, 500 g ai/ha, 0 to 100 scale (0 no effect, 100 complete control)"}, "[19]": {"details": "31 g ai/ha, scale of 0 to 100, 0 is no effect, 100 is complete control"}, "[20]": {"details": "62 g ai/ha, scale of 0 to 100, 0 is no effect, 100 is complete control"}, "[21]": {"details": "125 g ai/ha, scale 0 to 100, 0 no effect, 100 complete control"}, "[22]": {"details": "250 g ai/ha, scale 0 to 100, 0 no effect, 100 complete control"}}}
{"smiles": "Cc1nn(-c2ccc(F)cc2F)nc1Oc1ccnc(C(F)(F)F)c1", "note": "[Compound 146]", "values": [{"measurement": "Crabgrass, Large plant response rating", "setting": "[1]; [11]", "value": 80}, {"measurement": "Crabgrass, Large plant response rating", "setting": "[1]; [12]", "value": 90}, {"measurement": "Plant response rating, Crabgrass, Large", "setting": "[1]; [13]", "value": 100}, {"measurement": "Plant response rating, Crabgrass, Large", "setting": "[1]; [14]", "value": 100}, {"measurement": "Foxtail, Giant plant response rating", "setting": "[2]; [11]", "value": 80}, {"measurement": "Foxtail, Giant plant response rating", "setting": "[2]; [12]", "value": 90}, {"measurement": "Plant response rating, Foxtail, Giant", "setting": "[2]; [13]", "value": 100}, {"measurement": "Plant response rating, Foxtail, Giant", "setting": "[2]; [14]", "value": 100}, {"measurement": "Plant response rating, Pigweed", "setting": "[3]; [15]", "value": 100}, {"measurement": "Pigweed plant response rating", "setting": "[3]; [16]", "value": 100}, {"measurement": "Plant response rating, Pigweed", "setting": "[3]; [17]", "value": 100}, {"measurement": "Plant response rating, Pigweed", "setting": "[3]; [18]", "value": 100}, {"measurement": "Plant response rating, Wheat", "setting": "[4]; [15]", "value": 10}, {"measurement": "Wheat plant response rating", "setting": "[4]; [16]", "value": 30}, {"measurement": "Plant response rating, Wheat", "setting": "[4]; [17]", "value": 0}, {"measurement": "Plant response rating, Wheat", "setting": "[4]; [18]", "value": 30}, {"measurement": "Plant response rating, Oat, Wild", "setting": "[5]; [19]", "value": 5}, {"measurement": "Plant response rating, Oat, Wild", "setting": "[5]; [20]", "value": 40}, {"measurement": "Plant response rating, Oat, Wild", "setting": "[5]; [21]", "value": 85}, {"measurement": "Plant response rating, Oat, Wild", "setting": "[5]; [22]", "value": 90}, {"measurement": "Plant response rating, Foxtail, Giant", "setting": "[6]; [19]", "value": 40}, {"measurement": "Plant response rating, Foxtail, Giant", "setting": "[6]; [20]", "value": 100}, {"measurement": "Plant response rating, Foxtail, Giant", "setting": "[6]; [21]", "value": 100}, {"measurement": "Plant response rating, Foxtail, Giant", "setting": "[6]; [22]", "value": 100}, {"measurement": "Plant response rating, Nightshade", "setting": "[7]; [20]", "value": 35}, {"measurement": "Plant response rating, Nightshade", "setting": "[7]; [21]", "value": 90}, {"measurement": "Plant response rating, Nightshade", "setting": "[7]; [22]", "value": 98}, {"measurement": "Plant response rating, Nutsedge, Yellow", "setting": "[8]; [19]", "value": 0}, {"measurement": "Plant response rating, Nutsedge, Yellow", "setting": "[8]; [20]", "value": 0}, {"measurement": "Plant response rating, Nutsedge, Yellow", "setting": "[8]; [22]", "value": 10}, {"measurement": "Plant response rating, Pigweed", "setting": "[9]; [19]", "value": 85}, {"measurement": "Plant response rating, Pigweed", "setting": "[9]; [20]", "value": 90}, {"measurement": "Plant response rating, Pigweed", "setting": "[9]; [21]", "value": 100}, {"measurement": "Plant response rating, Pigweed", "setting": "[9]; [22]", "value": 100}, {"measurement": "Plant response rating, Soybean", "setting": "[10]; [19]", "value": 10}, {"measurement": "Plant response rating, Soybean", "setting": "[10]; [20]", "value": 15}, {"measurement": "Plant response rating, Soybean", "setting": "[10]; [22]", "value": 40}]}
